Here are results for three compounds from publication PMC9148287, “Cytotoxic and Radiosensitising Effects of a Novel Thioredoxin Reductase Inhibitor in Brain Cancers” (Molecular Neurobiology, 2022).

Experiment [1] has as its system SNB19 cells. Nature of the experiment: Growth assay (cell counts). Type of experiment: cell-based. The following applies: Homo sapiens, SNB-19, 2D normoxia. How it is done:
(§1) Cells (2 × 10^5) were seeded in six-well plates, allowed to adhere overnight and then treated, in triplicate, with different concentrations of TMZ (0–1000 μM) or IQ10 (0–1 µM) for up to 72 h under normoxic or hypoxic conditions. DMSO was added to the negative control groups at the same volume equivalent to that in the treatment groups. For hypoxic experiments, cells were pre-incubated at 1% O2 for 24 h prior to drug treatment. Cells were then treated with different concentrations of IQ10 for up to an additional 72 h under hypoxia. Normoxic controls were always assessed in parallel to hypoxic-treated groups. Every 24 h after initiating drug treatment, cells were trypsinised and counted using a Countess system. Cell counts were recorded, analysed and plotted over the 72 h period.

Experiment [2] has as its system KNS42 cells. The experiment is described as follows: Growth assay (cell counts). Type of experiment: cell-based. The following applies: Homo sapiens, KNS-42, 2D normoxia. How it is done:
as §1

The test system of experiment [3] is UW228-3 cells. The experiment is described as follows: Growth assay (cell counts). Type of experiment: cell-based. The following applies: Homo sapiens, 2D normoxia. How it is done:
as §1

For experiment [4], the system named is UW228-3 cells. The experiment is described as follows: Clonogenic survival assay. The following applies: Homo sapiens; UW228-3, 48 h post-treatment. Type of experiment: cell-based. Here is the method: (§2) Cells collected from the growth assay (48 h time point) were counted and plated at low-density, in triplicate, and incubated at 37 °C, 5% CO2, undisturbed, for colony formation. After 12 days (21 days for KNS42), colonies were fixed (50% methanol in PBS), stained (0.5% crystal violet solution) and counted manually. Any cluster of cells greater than 50 in number was counted as a surviving colony. The plating efficiency (PE) was calculated as number of control colonies formed/number of control cells seeded. For single-agent treatment, drug or radiation, the surviving fraction (SF) was calculated as follows: number of colonies formed after treatment / (number of cells seeded × PE). […]
(§3) Cells were seeded in ultra-low attachment round-bottom 96-well plates (Corning), aggregated by centrifugation (2000 rpm/10 min), and allowed to grow for 4 days under standard culture conditions to form mature spheroids. […] Viability was assessed using the resazurin reduction assay (CellTiter-Blue, Promega) following the manufacturer’s protocol. […] Fluorescence was measured with an excitation wavelength of 560 nm and emission 590 nm on a plate reader. […] Six spheroids per condition were assessed in each experiment. The clonogenicity of cells cultured in spheroids was assessed using conventional 2D clonogenic survival assay as described above. […]

The subject of experiment [5] is DAOY cells. The experiment is described as follows: Growth assay (cell counts). Type of experiment: cell-based. The following applies: Homo sapiens, 2D normoxia. How it is done:
as §1
(§4) Cells were seeded, in triplicate, in 24-well plates, incubated overnight and transfected with either a pre-designed siRNA directed against human TrxR-1 (SI00050876, target sequence, 5′-[…]-3′, Qiagen) or mock-transfected with a scrambled siRNA (Allstars Negative Control siRNA, Qiagen). Briefly, 2.5 μL of 2 μM siRNA and 4.5 μL HiPerFect transfection reagent (Qiagen) were combined in 100 μL medium (serum and antibiotic free) and incubated at room temperature for 10 min to allow complex formation. Reaction mixtures were then added to 400 μL of fresh medium. Medium was aspirated from wells and replaced with the appropriate 500 μL of transfection solution. After 48 h of incubation, the cells were re-plated, allowed to adhere overnight and treated with various concentrations of IQ10 for an additional 48 h. Growth curve and/or clonogenic survival assays were used as the endpoint to assess the drug effects. Western blotting analysis of TrxR and β-actin (as a loading control) were used to confirm that TrxR expression was suppressed for the duration of the experiment.

Experiment [6] has as its system SF188 cells. Nature of the experiment: Growth assay (cell counts). Type of experiment: cell-based. The following applies: Homo sapiens, SF-188, 2D normoxia. How it is done: as §1, §4
The test system of experiment [7] is SNB19 cells. Nature of the experiment: Clonogenic survival assay. Type of experiment: cell-based. The following applies: Homo sapiens, SNB-19; SNB19, 48 h post-treatment. How it is done:
(§5) Cells collected from the growth assay (48 h time point) were counted and plated at low-density, in triplicate, and incubated at 37 °C, 5% CO2, undisturbed, for colony formation. After 12 days (21 days for KNS42), colonies were fixed (50% methanol in PBS), stained (0.5% crystal violet solution) and counted manually. Any cluster of cells greater than 50 in number was counted as a surviving colony. The plating efficiency (PE) was calculated as number of control colonies formed/number of control cells seeded. For single-agent treatment, drug or radiation, the surviving fraction (SF) was calculated as follows: number of colonies formed after treatment / (number of cells seeded × PE). For drug radiation combination experiments, cytotoxicity of drug treatment was accounted for by calculating SF as follows: number of colonies formed from each radiation dose / (number of cells seeded × PE × SF of drug-treated cell at 0 Gy).

The test system of experiment [8] is KNS42 cells. The experiment is described as follows: Clonogenic survival assay. Type of experiment: cell-based. The following applies: Homo sapiens, KNS-42; KNS42, 48 h post-treatment. How it is done:
as §5

The test system of experiment [9] is DAOY cells. The experiment is described as follows: Clonogenic survival assay. The following applies: Homo sapiens, 48 h post-treatment. Type of experiment: cell-based. Here is the method:
as §2, §3

The test system of experiment [10] is SF188 cells. The experiment is described as follows: Clonogenic survival assay. Type of experiment: cell-based. The following applies: Homo sapiens, SF-188; SF188, 48 h post-treatment. How it is done: as §5
Cells were seeded, in triplicate, in 24-well plates, incubated overnight and transfected with either a pre-designed siRNA directed against human TrxR-1 (SI00050876, target sequence, 5′-[…]-3′, Qiagen) or mock-transfected with a scrambled siRNA (Allstars Negative Control siRNA, Qiagen). […]

Experiment [11] relates to TrxR. Set-up: method as in PMID 17320769. The following applies: ovarian cancer cells; cited from earlier work.
Experiment [12] deals with T1, TrxR (Homo sapiens, UniProt Q16881).
T1 construct: cells were trypsinised, counted and lysed in M-PER protein extraction reagent; endogenous in cells; host or cells: SF188, DAOY, UW228-3
T1 sequence (Q16881 151-649 limits assumed): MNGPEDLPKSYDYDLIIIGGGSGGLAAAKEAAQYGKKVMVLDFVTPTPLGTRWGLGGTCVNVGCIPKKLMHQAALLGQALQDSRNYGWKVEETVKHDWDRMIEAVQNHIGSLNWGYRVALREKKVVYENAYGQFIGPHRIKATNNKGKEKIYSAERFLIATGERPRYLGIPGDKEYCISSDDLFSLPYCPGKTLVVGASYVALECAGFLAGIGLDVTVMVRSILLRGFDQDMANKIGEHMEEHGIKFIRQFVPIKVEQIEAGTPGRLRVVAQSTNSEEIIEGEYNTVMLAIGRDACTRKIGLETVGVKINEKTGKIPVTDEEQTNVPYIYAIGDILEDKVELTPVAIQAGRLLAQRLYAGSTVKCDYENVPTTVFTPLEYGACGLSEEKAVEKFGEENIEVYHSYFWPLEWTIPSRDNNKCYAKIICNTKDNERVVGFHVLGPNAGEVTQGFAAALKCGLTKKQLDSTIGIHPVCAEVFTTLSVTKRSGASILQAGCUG
Nature of the experiment: TrxR activity assay (endpoint insulin reduction) on lysates of drug-treated cells. Type of experiment: cell-based. The following applies: 1 μM, 4 h; SF188, DAOY and UW228-3 cells. How it is done: Following incubation, with various concentrations of IQ10 or with 1 μM of auranofin, for 4/48 h, cells were trypsinised, counted and lysed in M-PER protein extraction reagent (Thermo Fisher) for 20 min. Lysates were analysed immediately or stored for future use at − 80 °C. The Bio-Rad protein assay kit (Bio-Rad Laboratories) was used to measure the protein concentration of each sample. TrxR activity was measured in 96-well plates using the endpoint insulin reduction assay as described previously with appropriate modifications. Briefly, the assay mixture contained the following in a final volume of 100 μL HE buffer (100 mM HEPES, pH 7.2; 5 mM EDTA): 80 µg of protein, 2 µM Escherichia coli Trx, 1 mg/ml bovine insulin and 1 mM NADPH. Duplicate samples were used, either with or without exogenous Trx enzyme. […] Absorbance was measured at 405 nm using a microplate reader (FLUOstar OPTIMA, BMG LABTECH). The absorbance of the sample lacking exogenous Trx was subtracted from that of the corresponding sample containing exogenous Trx. The difference in absorbance indicates TrxR function. The amount of functional TrxR was calculated from the standard curve, generated simultaneously, with pure enzymes. The TrxR activity was expressed as the percentage of DMSO-treated control.

For experiment [13], the system named is DAOY cells. Nature of the experiment: Intracellular ROS levels (H2DCF-DA flow cytometry). Type of experiment: cell-based, human. The following applies: 1 mM H2O2 1 h. Here is the method: (§6) Intracellular ROS levels were measured as described previously. Briefly, cells were treated with various concentrations of IQ10 for 4 h either alone or with subsequent exposure to 1 mM H2O2 (ROS positive control) for 1 h. Cells treated with DMSO, at the same dilution ratio as IQ10, were set as negative controls. Cells were then incubated with the cell-permeable dye 2′,7 ′-dichlorodihydrofluorescein diacetate (H2DCF-DA, Sigma) in fresh medium at a final concentration of 1 μM at 37 °C for 30 min. Cells were harvested and intracellular ROS levels assessed by measurement of fluorescence using a MACSquant flow cytometer (Miltenyi Biotec). A gate was set to include only healthy living cells in the analysis. Data were analysed using FlowJo 7.6.1 software (Tree Star) to obtain the median fluorescence intensity (MFI) of each group representing the amount of intracellular ROS generation.
Background: Flow cytometry measures light scatter and fluorescence of single cells or particles in a stream.

Experiment [14] concerns UW228-3 cells. The experiment is described as follows: Intracellular ROS levels (H2DCF-DA flow cytometry). The following applies: UW228-3, 1 mM H2O2 1 h. Type of experiment: cell-based, human. Here is the method: as §6

For `Cn1nnc2c(C(N)=O)ncn2c1=O` [TMZ, temozolomide], the IC50 (usually the point on the concentration scale where inhibition reaches its midpoint) was greater than 1000 µM in the experiment with SNB19 cells [1] (SNB19, 24 h); greater than 1000 µM with SNB19 cells [1] (SNB19, 48 h); 980 ± 281 µM in the experiment with SNB19 cells [1] (SNB19, 72 h); greater than 1000 µM in the experiment on KNS42 cells [2] (KNS42, 24 h); greater than 1000 µM with KNS42 cells [2] (KNS42, 48 h); 731 ± 24.3 µM in the experiment on KNS42 cells [2] (KNS42, 72 h). The IC50 was greater than 1000 µM in the experiment on UW228-3 cells [3] (UW228-3, 24 h); 314 ± 17.8 µM in the experiment with UW228-3 cells [3] (UW228-3, 48 h); 148 ± 14.7 µM with UW228-3 cells [3] (UW228-3, 72 h); 93.1 ± 30 µM in the experiment with UW228-3 cells [4]; 547 ± 11.6 µM in the experiment on DAOY cells [5] (24 h); 248 ± 49.8 µM with DAOY cells [5] (48 h). Also, the IC50 with DAOY cells [5] (72 h) was 162 ± 14.3 µM; in the experiment with SF188 cells [6] (SF188, 24 h) it was greater than 1000 µM; in the experiment on SF188 cells [6] (SF188, 48 h), 321 ± 86.8 µM; in the experiment with SF188 cells [6] (SF188, 72 h) it was 188 ± 24.1 µM; in the experiment on SNB19 cells [7], 63.7 ± 10 µM; with KNS42 cells [8], 49.5 ± 11.4 µM. The IC50 with DAOY cells [9] is 464 ± 20.1 µM; in the experiment with SF188 cells [10] it was 15.2 ± 0.9 µM.

Regarding `CC(=O)OC[C@H]1O[C@@H]([S-])[C@H](OC(C)=O)[C@@H](OC(C)=O)[C@@H]1OC(C)=O.CCP(CC)CC.[Au+]` [auranofin], the “concentrations inhibiting TrxR” value with TrxR [11] is given as “nanomolar concentrations”. The “average TrxR inhibition” value on TrxR [12] is listed as 83–95%.

Turning to `OO` [H2O2], the “intracellular ROS levels compared to control” value with DAOY cells [13] came to 1.4 fold; in the experiment with UW228-3 cells [14], 1.5 fold.
